# Experimental data: the NIST ThermoML archive (doi:10.1016/j.jct.2019.05.017)
# ± gives the expanded uncertainty stated by the source.
# Assays:
# [1] = 101.3 kPa, Liquid, Vibrating tube method
# [2] = wn = mass fraction of the nth substance listed; conditions: 101.3 kPa, Liquid, Vibrating tube method
smiles,measurement,setting,value
NCCO [2-aminoethan-1-ol],mass density,[1]; 303.15 K,1008.8 ± 2 kg/m3
same,mass density,[1]; 313.15 K,1000.9 ± 2 kg/m3
CCOCCO [2-ethoxyethan-1-ol],mass density,[1]; 293.15 K,929.7 ± 2 kg/m3
same,mass density,[1]; 298.15 K,925.2 ± 2 kg/m3
same,mass density,[1]; 303.15 K,920.7 ± 2 kg/m3
same,mass density,[1]; 308.15 K,916.1 ± 2 kg/m3
same,mass density,[1]; 313.15 K,911.5 ± 2 kg/m3
same,mass density,[1]; 318.15 K,906.8 ± 2 kg/m3
same,mass density,[1]; 323.15 K,902.1 ± 2 kg/m3
same,mass density,[1]; 328.15 K,897.4 ± 2 kg/m3
same,mass density,[1]; 333.15 K,892.6 ± 2 kg/m3
CCOCCO [2-ethoxyethan-1-ol] + NCCO,mass density,"[2]; 293.15 K, w2 = 0.318",960.2 ± 2 kg/m3
same,mass density,"[2]; 298.15 K, w2 = 0.318",956 ± 2 kg/m3
same,mass density,"[2]; 303.15 K, w2 = 0.318",951.7 ± 2 kg/m3
same,mass density,"[2]; 308.15 K, w2 = 0.318",947.4 ± 2 kg/m3
same,mass density,"[2]; 313.15 K, w2 = 0.318",943 ± 2 kg/m3
same,mass density,"[2]; 318.15 K, w2 = 0.318",938.7 ± 2 kg/m3
same,mass density,"[2]; 323.15 K, w2 = 0.318",934.3 ± 2 kg/m3
same,mass density,"[2]; 328.15 K, w2 = 0.318",929.8 ± 2 kg/m3
same,mass density,"[2]; 333.15 K, w2 = 0.318",925.4 ± 2 kg/m3
COCCO [2-methoxyethan-1-ol],mass density,[1]; 283.15 K,974.7 ± 2 kg/m3
same,mass density,[1]; 288.15 K,969.9 ± 2 kg/m3
same,mass density,[1]; 293.15 K,964.7 ± 2 kg/m3
same,mass density,[1]; 298.15 K,960.1 ± 2 kg/m3
same,mass density,[1]; 303.15 K,955.5 ± 2 kg/m3
same,mass density,[1]; 308.15 K,950.9 ± 2 kg/m3
same,mass density,[1]; 313.15 K,946.2 ± 2 kg/m3
same,mass density,[1]; 318.15 K,941.5 ± 2 kg/m3
same,mass density,[1]; 323.15 K,936.7 ± 2 kg/m3
same,mass density,[1]; 328.15 K,932 ± 2 kg/m3
same,mass density,[1]; 333.15 K,927.2 ± 2 kg/m3
COCCO [2-methoxyethan-1-ol] + NCCO,mass density,"[2]; 293.15 K, w2 = 0.31",985.5 ± 2 kg/m3
same,mass density,"[2]; 298.15 K, w2 = 0.31",981.1 ± 2 kg/m3
same,mass density,"[2]; 303.15 K, w2 = 0.31",976.8 ± 2 kg/m3
same,mass density,"[2]; 308.15 K, w2 = 0.31",972.5 ± 2 kg/m3
same,mass density,"[2]; 313.15 K, w2 = 0.31",968.1 ± 2 kg/m3
same,mass density,"[2]; 318.15 K, w2 = 0.31",963.7 ± 2 kg/m3
same,mass density,"[2]; 323.15 K, w2 = 0.31",959.2 ± 2 kg/m3
same,mass density,"[2]; 328.15 K, w2 = 0.31",954.8 ± 2 kg/m3
same,mass density,"[2]; 333.15 K, w2 = 0.31",950.3 ± 2 kg/m3
